# In patent US20240199755A1, “ANTAGONISTS AND AGONISTS OF THE TRANSFERRIN RECEPTOR-2 FOR USE IN THE TREATMENT OF DISEASES OF THE BONE” (Kymab Limited, priority 2018, published 2024):
# Entries after “also recorded” stand apart in the source; their conditions may differ.
# Assays:
# [1] = molecular target: T1, Tfr2-ECD (Mus musculus, UniProt Q9JKX3); experiment: SPR binding of holo-Tf and BMP receptors to Tfr2-ECD immobilized on the sensor chip; parameters: species or system murine; conditions: 200 nM BMP receptors; binding level normalized to molecular weight
# T1 construct: full-length extracellular domain (ECD, aa 103-798) of murine Tfr2; His (N); MBP (N); c3 (protease site between MBP and ECD) (N); made in house; host or cells: Sf9 insect cells (baculovirus, pOCC211-Tfr2-ECD)
# T1 sequence (Q9JKX3 103-798): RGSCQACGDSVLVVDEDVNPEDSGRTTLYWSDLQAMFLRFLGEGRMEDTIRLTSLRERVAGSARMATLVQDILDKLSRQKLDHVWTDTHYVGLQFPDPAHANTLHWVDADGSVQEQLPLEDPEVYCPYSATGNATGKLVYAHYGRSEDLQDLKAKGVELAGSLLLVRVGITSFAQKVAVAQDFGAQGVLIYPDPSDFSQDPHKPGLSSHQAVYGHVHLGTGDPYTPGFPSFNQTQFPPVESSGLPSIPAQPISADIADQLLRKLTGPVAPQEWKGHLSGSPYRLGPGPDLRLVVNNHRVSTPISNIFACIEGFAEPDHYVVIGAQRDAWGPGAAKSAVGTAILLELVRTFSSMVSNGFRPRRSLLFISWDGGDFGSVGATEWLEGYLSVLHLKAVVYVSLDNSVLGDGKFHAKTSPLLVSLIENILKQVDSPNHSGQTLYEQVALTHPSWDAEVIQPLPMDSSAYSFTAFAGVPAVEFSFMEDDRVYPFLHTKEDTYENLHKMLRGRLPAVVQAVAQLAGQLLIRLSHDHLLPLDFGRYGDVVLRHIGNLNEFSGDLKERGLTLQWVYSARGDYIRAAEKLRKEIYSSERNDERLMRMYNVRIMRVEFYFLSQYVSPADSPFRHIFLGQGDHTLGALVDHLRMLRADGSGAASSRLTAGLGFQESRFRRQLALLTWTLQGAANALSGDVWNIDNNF
# Protocol: For this purpose, Tfr2-ECD is immobilized on a Series S Sensor Chip C1 (GE Healthcare), by means of coupling the amino groups at 25° C. The carboxyl groups on the chip surface are activated for 7 minutes using a mixture of 196 mM 1-ethyl-3-(3-dimethylaminopropyl) carbodiimide-hydrochloride and 50 mM n-hydroxysuccinimide at a flow rate of 10 μl/min. Subsequently, 5 μg/ml Tfr2-ECD, diluted with sodium acetate buffer (pH 4.5), is injected at a flow rate of 5 μl/min up to a relative occupancy of 200 RU. Non-reacted groups are inactivated by injecting 1 M thanolamine-HCl (pH 8.5) for 7 minutes at a flow rate of 10 μl/min. In order to prepare a reference surface, the same procedure is carried out but without Tfr2-ECD being injected.
# The binding assays are carried out at 37° C. at a flow rate of 30 μl/min. Each analyte is diluted by a running buffer (HBS-P, pH 7.4 together with 50 nM FeCl3). […] The values of the binding level are read out, relative to the baseline, 10 s before the end of the injection and are corrected with respect to the molar mass. […] The binding parameters are determined using the Biacore™ T100 evaluation software 2.03. […]
# For binding analysis, an injection of analyte for 240 s or 300 s over a Tfr2-ECD surface was followed by 1000 s dissociation. The values of the binding levels were recorded from referenced signals 10 s before the end of injection relative to baseline response. […]
# [2] = system: trauma-induced heterotopic ossification; experiment: Trauma-potentiated (drop-weight) heterotopic ossification model; type: in vivo; conditions: WT mice; after three weeks; Tfr2-ECD single dose, palovarotene or ibuprofen daily
# Protocol: For systemic Tfr2-ECD treatment, WT mice were treated every other day with Tfr2-ECD intraperitoneally for two weeks. Mice received 250 μg Tfr2-ECD (10 mg/kg BW) per injection for the first 10 days after BMP-2/matrigel injection into the muscle and 125 μg per injection (5 mg/kg BW) for the remaining time. This experiment was performed once with 8-10 mice per group. Drop-weight HO: This experiment was performed according to Liu et al. with minor modifications^65. Female 10-12-week-old WT mice were anesthetized and placed on a ridge of a plastic container over which the right leg was bent so the femur was lying horizontally. Mice received an injection of 1 μg BMP-2 mixed in 50 μl matrigel. Afterwards, a stainless-steel ball of 16 g (16 mm diameter) was dropped from a distance of 80 cm height onto the quadriceps muscle. Mice either received a single dose of 1 μg Tfr2-ECD, which was co-injected with the BMP-2/matrigel mixture, or palovarotene (Hycultec), which was administered daily by oral gavage. Palovarotene was dissolved in DMSO and diluted 1:4 with corn oil. Mice received palovarotene at a dose of 100 μg/mouse for the first five days and 50 μg/mouse for the remainder of the experiment (days 621). One group of mice received ibuprofen via the drinking water at a dose of […] which was changed every other day^66. […]
# [3] = system: BMP-2-induced heterotopic ossification; experiment: BMP-2-induced heterotopic ossification (HO) mouse model; type: in vivo, mice; conditions: WT mice; day 8; systemic treatment; Safranin O staining
# Protocol: Male and female C57BL/6 mice are used for the HO model. The HO is triggered by injecting BMP-2 into the muscle (Wosczyna et al. 2012).
# All the mice are fed with standard feed and water ad libitum and are kept in groups of five mice per cage. The mice are exposed to a 12-hour light/dark cycle and air cooling to 23° C. (no special pathogen-free room). Enrichment is provided in the form of cardboard houses and bedding material. The mice are randomly divided into the different treatment groups and the assays are subsequently carried out as blind experiments.
# The HO is examined by means of treatment using 2.5 μl of a 1 mg/ml recombinant BMP-2 solution (Thermo Fisher Scientific) or 2.5 μl of a 1 mg/ml Tfr2-ECD mixed with 47.5 μl Matrigel (BD Bioscience) at 0° C. For combination treatment, 2.5 of a 1 mg/ml recombinant BMP-2 solution is mixed with 2.5 μl of a 1 mg/ml Tfr2-ECD and 45 μl Matrigel. The Matrigel mixtures are injected into the musculus tibialis anterior of 10-week-old female wild-type mice. The legs are examined after two weeks.
# The bone microarchitecture is analyzed using vivaCT40 (Scanco Medical, Switzerland). The entire lower leg bones are measured at a resolution of 10.5 μm using X-rays of 70 kVp, […] and at an integration time of 200 s. Predefined scripts from Scanco are used to analyze the bone (#1). […]
Compound,Binding response of BMPRs to Tfr2-ECD compared with BMPs [1],"New bone formation in the muscle (trauma-induced HO, μCT) [2]",Number of chondrocytes (chondrogenic phase of HO) [3],Production of cartilage (chondrogenic phase of HO) [3]
"BMPR-IA: BMP receptor type IA (R&D Systems), positive control in the BMP-2 ELISA",weaker than BMPs,,,
CC(C)Cc1ccc(C(C)C(=O)O)cc1 (centres unmarked) [ibuprofen],,did not prevent; also recorded: did not significantly reduce,,
"CC1(C)CCC(C)(C)c2cc(Cn3cccn3)c(/C=C/c3ccc(C(=O)O)cc3)cc21 [palovarotene, reference compound]",,comparable,suppressed,suppressed
